Measured values: US4659734A, “Olinecarboxylic acid derivatives” (Nippon Shinyaku Co., Ltd., priority 1983, dated 1987)
In brackets after ≈: the same amount, converted by molar mass.

Columns and labels:
[1] = system: Acinetobacter calcoacelicus 54; experiment: Minimum growth inhibiting concentration, Japan Chemotherapeutic Society method; type: cell-based; settings: Acinetobacter calcoacelicus 54, Gram -; read-out: Minimum Growth Inhibiting Concn
Method: (§1) The Antibacterial activity of the compounds of Examples 14, 13, 22b, 21 and 15 was determined in accordance with the method of Japan Chemotherapeutic Society (cf. Nippon Kagaku Ryoho Gakkai Shi, volume 29, number 1, pages 76 to 79, 1981) and the results are reported in Table 1, which follows.

Escherichia coli KC-14 = experiment: as above; type: cell-based; settings: KC14; Escherichia coli KC-14, Gram -; read-out: Minimum Growth Inhibiting Concn
Method: as §1

[2] = system: Listeria monocytogenes RIMD 1205020; experiment: as above; type: cell-based; settings: RIMD1205020; Listeria monocytogenes RIMD 1205020, Gram +; read-out: Minimum Growth Inhibiting Concn
Method: as §1

[3] = system: Micrococcus luteus ATCC 9341; experiment: as above; type: cell-based; settings: ATCC9341; Micrococcus luteus ATCC 9341, Gram +; read-out: Minimum Growth Inhibiting Concn
Method: as §1

Proteus mirabilis 181 = experiment: as above; type: cell-based; settings: Proteus mirabilis 181, Gram -; read-out: Minimum Growth Inhibiting Concn
Method: as §1

[4] = system: Pseudomonas aeruginosa E-2; experiment: as above; type: cell-based; settings: E2; Pseudomonas aeruginosa E-2, Gram -; read-out: Minimum Growth Inhibiting Concn
Method: as §1

[5] = system: Pseudomonas aeruginosa No. 12; experiment: as above; type: cell-based; settings: Pseudomonas aeruginosa No. 12, Gram -; read-out: Minimum Growth Inhibiting Concn
Method: as §1

[6] = system: Pseudomonas cepacia ATCC 25416; experiment: as above; type: cell-based; settings: Burkholderia cepacia, ATCC25416; Pseudomonas cepacia ATCC 25416, Gram -; read-out: Minimum Growth Inhibiting Concn
Method: as §1

[7] = system: Pseudomonas maltophilia ATCC 13637; experiment: as above; type: cell-based; settings: Stenotrophomonas maltophilia, ATCC13637; Pseudomonas maltophilia ATCC 13637, Gram -; read-out: Minimum Growth Inhibiting Concn
Method: as §1

[8] = system: Staphylococcus aureus Smith; experiment: as above; type: cell-based; settings: Gram +, read-out: Minimum Growth Inhibiting Concn
Method: as §1

[9] = Blood serum concentration, disc method; type: in vivo, ddY strain mice
Method: In this experiment, ddY strain mice (male; body weight 30±2 grams) were used. Sixty mg/kg of the compound of Example 22b were given per os. The blood concentration was calculated from calibration curves obtained by the disc method using Escherichia coli NIHJ strain as tested bacteria and diluting the test compound of mice serum.

Cc1csc2c(C(=O)O)c(=O)c3cc(F)c(N4CCN(C)CC4)cc3n12 [Example 22b, 7-fluoro-1-methyl-8-(4-methyl-1-piperazinyl)-5-oxo-5H-thiazolo(3,2-a)-quinoline-4-carboxylic acid]
MIC [1]: 0.2 µg/mL (≈ 0.533 µM) | MIC (Escherichia coli KC-14): 0.013 µg/mL (≈ 0.0346 µM) | MIC [2]: 0.2 µg/mL (≈ 0.533 µM) | MIC [3]: 0.78 µg/mL (≈ 2.08 µM) | MIC (Proteus mirabilis 181): 0.2 µg/mL (≈ 0.533 µM) | MIC [4]: 0.39 µg/mL (≈ 1.04 µM) | MIC [5]: 0.78 µg/mL (≈ 2.08 µM) | MIC [6]: 0.2 µg/mL (≈ 0.533 µM) | MIC [7]: 0.025 µg/mL (≈ 0.0666 µM) | MIC [8]: 0.053 µg/mL (≈ 0.141 µM) | concentration at 0.25 h ([9]; mouse, serum, po, 0.25 hours, 60 mg/kg per os, average ± standard error): 3400 ± 820 ng/mL | concentration at 0.5 h ([9]; mouse, serum, po, 0.5 hours, 60 mg/kg per os, average ± standard error): 5400 ± 320 ng/mL | concentration at 1 h ([9]; mouse, serum, po, 1 hour, 60 mg/kg per os, average ± standard error): 4200 ± 700 ng/mL | concentration at 2 h ([9]; mouse, serum, po, 2 hours, 60 mg/kg per os, average ± standard error): 3300 ± 370 ng/mL | concentration at 4 h ([9]; mouse, serum, po, 4 hours, 60 mg/kg per os, average ± standard error): 2500 ± 230 ng/mL | blood concentration (in words) ([9]; oral, mice): promptly gave high and sustained blood concentrations when administered orally
